{"source": "patent US20260355199A1", "about": "“COMPOSITIONS AND METHODS FOR TREATING OR PREVENTING NONALCOHOLIC STEATOHEPATITIS (NASH), ANOREXIA, DEPRESSION, ENDOMETRIOSIS, AND OTHER DISEASES OR DISORDERS” (priority 2022, published 2026)", "key": {"murine model of NASH": {"test_system": "murine model of NASH", "assay": "High fat high sugar diet-induced murine model of NASH", "assay_type": "in vivo, mouse", "settings": "for fasting glucose / glucose tolerance: week 12; for plasma AST: week 13", "protocol": "As TET3-positive macrophages were also detected in human NASH (FIG. 24B), studies were performed to investigate whether depleting these macrophages would reduce NASH progression. Despite the high efficiency (up to 90%) of the LysM-cre strain in manipulating macrophages originated from myeloid progenitors including those in the peritoneal cavity, peripheral blood and bone marrow, only ~40% of tissue resident macrophages derived from yolk sac (e.g., those in the liver and the spleen red pulp) were affected (Shi et al., 2018, Methods Mol Biol, 1784:263-275). While the inefficacy of the LysM-cre strain in depleting tissue resident macrophages has precluded using the Mye-Tet3 ko mice, potential effects of Bobcat339 in steatosis, inflammation, and fibrosis were assessed using a high fat high sugar diet-induced murine model of NASH (Ishimoto et al., 2013, Hepatology, 58:1632-1643; Kroh et al., 2020, Gastroenterol Res Pract, 7347068; Baiges-Gaya et al., 2021, J Nutr Biochem, 89:108559). As shown schematically in FIG. 29A, mice were placed on a standard chow diet (CD) (control group) or a western diet with 10% sucrose in drinking water (WD) for 8 weeks to induce an early NASH phenotype (Kroh et al., 2020, Gastroenterol Res Pract, 7347068). Then, these mice were therapeutically dosed intravenously once a week from week 8 through week 11 with either 2.5 mg/kg Bobcat339 (treatment group) or vehicle (model group) for a total of 13 weeks on diets. Mice were euthanized following a 12 h overnight fasting, and plasma and liver were harvested for analyses.\nThen, these mice were therapeutically dosed intravenously once a week from week 8 through week 11 with either 3 mg/kg Bobcat339 (treatment group) or vehicle (model group) for a total of 13 weeks on diets. At the end of the study, mice were euthanized following a 12 h overnight fasting, and plasma and liver were harvested for analyses.\nMale C57BL/6J mice of 6-weeks old were randomly divided into three groups, with each containing 5 animals. The control group were fed a standard chow diet (CD). The model group and the treatment group were fed a western diet (WD) (40 kcal % fat, 20 kcal % fructose, and 2 kcal % cholesterol, Research Diets, D09100301) supplemented with 10% sucrose in drinking water provided ad libitum. In the treatment group, Bobcat339 administration was initiated following 8 weeks of WD by tail vein injection at 2.5 mg/kg body weight once a week for 4 weeks. The control group and the model group received vehicle (DMSO) tail vein injections. […] After a total of 13 weeks on diets, mice were sacrificed following a 12 h overnight fasting, and plasma and liver were harvested for analyses.\nGTT were performed following 16 h overnight fasting. Each animal received an i.p. injection of 2 g/kg of glucose (Sigma-Aldrich, G5767) in sterile saline. Blood glucose concentrations were measured using Contour next blood glucose meter (Ascensia Diabetes Care) via tail vein bleeding at the indicated time points after injection.\nThese were assessed using Triglyceride Content Assay Kit (Solarbio, BC0625) and Hydroxyproline Assay Kit (Sigma-Aldrich, MAK008-1KT), respectively.\nMouse liver samples were collected and fixed at 4 °C with 4% of phosphate buffered paraformaldehyde for 24 h. Fixed tissue specimens were embedded in paraffin and cut into […] tissue sections for histopathological analysis. Tissue sections were stained with Hematoxylin-Eosin according to standard protocols. For Sirius Red/Fast Green staining, slides were deparaffinized by heating at 65 °C for 60 min, followed by xylene wash 3 times 5 min each. The slides were then rehydrated in 100%, 90%, 80% and 70% ethanol for 5 min each, followed by ddH2O wash 2 times 5 min each. Then they were incubated in 0.04% Fast Green (Sigma-Aldrich, F7258) in saturated [COMPOUND LEFT OUT] for 15 min, washed with distilled water and then incubated in 0.1% Fast Green and 0.08% Sirius Red (Sigma-Aldrich, 365546) in saturated [COMPOUND LEFT OUT] for 30 min. […]"}, "TET2 [1]": {"test_system": "TET2", "assay": "TET2 expression in the ARC of mice", "assay_type": "in vivo, mouse", "settings": "2.5 mg/kg i.p., two days", "protocol": "To test whether Bobcat339 affects TET3 protein expression in AgRP neurons, Agrp-IRES-Cre::LSL-Cas9-GFP mice with GFP expression specifically in AgRP neurons were intraperitoneally injected with vehicle or Bobcat339 at 2.5 mg/kg, followed by isolation of ARCs under fed conditions (9:00-11:00) two days later. This dose was chosen based on the dose response studies. TET2 expression was widespread but was negligible in AgRP neurons.\nBobcat339 powder (Sigma-Aldrich, SML2611) was freshly dissolved in DMSO (vehicle) at a concentration of 50 mg/mL and filtered through a 0.22 micron. It was further diluted with 1×PBS to a final concentration of 0.5 mg/mL before injections. Mice were injected intraperitoneally with Bobcat339 at 1 mg/kg, 2.5 mg/kg, or 4 mg/kg.\nThe immunofluorescence for brain slices was conducted using previous methods (18). In brief, postfixed sections were cut into 40-μm-thick sections, followed by 5 times washing. […] The sections were coverslipped and scoped using a Keyence BZ-X700 fluorescence microscope. The fluorescence signals from GFP in AgRP neurons were detected without immunostaining."}, "TET2 [2]": {"test_system": "TET2", "assay": "TET2 protein stability (cycloheximide) in MDMs", "assay_type": "cell-based, human", "settings": "10 μM, with cycloheximide", "protocol": "For TET protein stability assay of MDMs, cells in 24-well plates were incubated with vehicle or Bobcat339 at a final concentration of 10 μM for 3 h, followed by addition of cycloheximide (CHX, Cell Signaling, 2112) at a final concentration of 50 μg/mL. Proteins were harvested at 0, 2, 4, and 6 hours after addition of CHX."}}, "data": [{"smiles": "Nc1nc(=O)n(-c2cccc(-c3ccccc3)c2)cc1Cl", "note": "[Bobcat339, 4-Amino-1-[1,1′-biphenyl]-3-yl-5-chloro-2(1H)-pyrimidinone]", "values": [{"measurement": "NAS score", "setting": "murine model of NASH; 2.5 mg/kg i.v. once a week", "value": "reduced NAS scores"}, {"measurement": "TET3-expressing macrophages in liver", "setting": "murine model of NASH; 2.5 mg/kg i.v. once a week", "value": "depleted after Bobcat339 treatment"}, {"measurement": "fibrosis stage", "setting": "murine model of NASH; 2.5 mg/kg i.v. once a week", "value": "a significant reduction in both the fibrosis stage and the hydroxyproline content"}, {"measurement": "histological severity of steatosis and fibrosis", "setting": "murine model of NASH; 2.5 mg/kg i.v. once a week", "value": "significantly reduced the severity of both steatosis and fibrosis"}, {"measurement": "liver hydroxyproline content", "setting": "murine model of NASH; 2.5 mg/kg i.v. once a week", "value": "a significant reduction in both the fibrosis stage and the hydroxyproline content"}, {"measurement": "liver triglycerides", "setting": "murine model of NASH; 2.5 mg/kg i.v. once a week", "value": "normalized liver triglycerides"}, {"measurement": "liver-to-body weight ratio", "setting": "murine model of NASH; 2.5 mg/kg i.v. once a week", "value": "decreased liver-to-body weight ratio"}, {"measurement": "fasting glucose", "setting": "murine model of NASH; 2.5 mg/kg i.v. once a week", "value": "a significant improvement"}, {"measurement": "glucose tolerance", "setting": "murine model of NASH; 2.5 mg/kg i.v. once a week", "value": "a significant improvement"}, {"measurement": "plasma AST", "setting": "murine model of NASH; 2.5 mg/kg i.v. once a week", "value": "normalized this marker"}, {"measurement": "IL-1b and IL-6 in CD163+ macrophage-enriched areas of liver", "setting": "murine model of NASH; 3 mg/kg i.v. once a week", "value": "reduced the expression of IL-1b and IL-6"}, {"measurement": "NAS score", "setting": "murine model of NASH; 3 mg/kg i.v. once a week", "value": "reduced NAS scores"}, {"measurement": "TET3-overexpressing CD163+ macrophages in liver", "setting": "murine model of NASH; 3 mg/kg i.v. once a week", "value": "significantly reduced after Bobcat339 treatment"}, {"measurement": "fibrosis stage", "setting": "murine model of NASH; 3 mg/kg i.v. once a week", "value": "a significant reduction in both the fibrosis stage and hydroxyproline content"}, {"measurement": "histological severity of steatosis and fibrosis", "setting": "murine model of NASH; 3 mg/kg i.v. once a week", "value": "significantly reduced the severity of both steatosis and fibrosis"}, {"measurement": "hydroxyproline content", "setting": "murine model of NASH; 3 mg/kg i.v. once a week", "value": "a significant reduction in both the fibrosis stage and hydroxyproline content"}, {"measurement": "liver triglycerides", "setting": "murine model of NASH; 3 mg/kg i.v. once a week", "value": "normalized liver triglycerides"}, {"measurement": "liver-to-body weight ratio", "setting": "murine model of NASH; 3 mg/kg i.v. once a week", "value": "decreased liver-to-body weight ratio"}, {"measurement": "fasting glucose", "setting": "murine model of NASH; 3 mg/kg i.v. once a week", "value": "a significant improvement"}, {"measurement": "glucose tolerance", "setting": "murine model of NASH; 3 mg/kg i.v. once a week", "value": "a significant improvement"}, {"measurement": "plasma AST", "setting": "murine model of NASH; 3 mg/kg i.v. once a week", "value": "normalized this marker"}, {"measurement": "TET2 expression", "setting": "TET2 [1]", "value": "did not significantly affect TET2 expression"}, {"measurement": "TET2 protein stability", "setting": "TET2 [2]", "value": "destabilized both proteins"}]}]}
